The numbers were not newly measured in patent US20060270852A1, “PREPARATION OF BISQUINOLINE COMPOUNDS” (priority 2005, published 2006), which cites them from elsewhere.

Read-outs that look alike come from different tables or passages of the source.

Test in series [1]: not given
This is another data set of the same source.

Series [2] relates to falciparum and vivax malaria.

Regarding `Clc1ccc2c(N3CCN(CCCN4CCN(c5ccnc6cc(Cl)ccc56)CC4)CC3)ccnc2c1` [Piperaquine phosphate], the solubility in water result is given as “soluble in water”.

On to `Clc1ccc2c(N3CCN(CCCN4CCN(c5ccnc6cc(Cl)ccc56)CC4)CC3)ccnc2c1` [piperaquine, 1,3-Bis-[4-(7′-chloro-quinoline-4′)piperazine-1]propane], for which, in series [1], the “dissociation constant [pKa]” value is recorded as 8.92. Also, the solubility in water result (at neutral and alkaline pH) was “only sparingly soluble in water”. Also, in series [2] (against falciparum and vivax malaria), the “efficacy compared with chloroquine” value was “at least as effective as”. In addition, the “tolerability compared with chloroquine” value in series [2] (in vivo) is “better tolerated than”.
